According to patent US20070292488A1, “METHOD FOR TREATMENT OF WOUND TREATMENT USING AGANOCIDES” (priority 2006, published 2007):

Tests used:
test bacteria = experiment: Comparison of hypochlorous acid with Dakin's solution (antimicrobial activity, therapeutic index, time kill); conditions: in the regimen described
From the text: “Time kill” refers to an in vitro measure of how fast a given antimicrobial can kill test bacteria.
This means that the time to wound closure may be reduced using hypochlorous acid.

[1] = test system: human secondary intention wound; experiment: Vacuum-assisted wound treatment combined with intermittent instillation of aganocide (HOCl) on a human wound; format: in vivo; conditions: 0.45% NaCl, pH about 4
Protocol: A human secondary intention wound approximately 3-4 cm in diameter is fitted with a polyurethane sponge, pore size 400-600 microns cut to the size of the wound and twice the thickness of the wound and covered with an adhesive film, per instructions on the vacuum system. The outlet is connected to an IV bag (500 ml) with 0.01% HOCl, 0.45% NaCl, and pH of about 4 and is elevated to between 0.1 and 1 meter above the wound. A 1-cm hole is punctured in the adhesive film, and a second adhesive film is used to cover the hole, with the second outlet connected to the vacuum pump.
Each cycle consists of three phases: a 2-hour pumping phase when the vacuum (125 mm Hg negative pressure) is connected and the IV bag is disconnected; […] and the IV bag is connected and the aganocide is applied to the wound; […] IV bag are disconnected.
Each treatment has about 24 cycles and starts with a pumping phase and proceeds for 48 hours. When the treatment is completed, the dressings are changed and the treatment is repeated until full granulation has been promoted and the granulation tissue is within the level of the skin, approximately 30 to 100 days, depending on the depth of the original wound. […]

OCl [hypochlorous acid]
antimicrobial activity in comparison with Dakin's solution (test bacteria): improved
therapeutic index in comparison with Dakin's solution (test bacteria): improved
time kill in comparison with Dakin's solution (test bacteria): improved
wound healing results of combination regimen compared with vacuum alone or aganocide alone ([1]; Example 1: 0.01% HOCl, 1 second instilling, 15 second holding): superior
wound healing results of combination regimen compared with vacuum alone or aganocide alone ([1]; Example 2: 0.01% HOCl, 5 second instilling, 5 minute holding): superior
